The results in this text go back to patent US12258338B2, “Modulators of the integrated stress response pathway” (EVOTEC INTERNATIONAL GMBH, priority 2019, dated 2025).

The target of assay [1] is T1, human ERG potassium channel (hERG) (Homo sapiens, UniProt Q12809).
T1 construct: expressed in transfected cells; host or cells: HEK293, stably transfected, tetracycline-inducible promoter
The assay is described as follows: hERG channel tail current recording using in vitro Rapid ICE (automated patch-clamp, QPatch HTX). The settings on record: Table 26. The class given is cell-based. How it is done:
Protocol—Measure of the Effect on hERG Channel by Tail Current Recording Using In Vitro Rapid ICE
The potency of the example compounds in inhibiting human ERG potassium channel (hERG) tail current was assessed in a recombinant HEK293 cell line stably transfected with hERG cDNA under an inducible promoter, using Rapid ICE (rapid ion channel electrophysiology) assay. Rapid ICE is an automated patch-clamp assay utilizing the QPatch HTX system (Sophion Bioscience A/S). Briefly, inducible HEK hERG cells were cultivated in minimum essential medium supplemented with 10% FBS, 1% non-essential amino acids, 1% sodium pyruvate, 2 mM 1-glutamine, 15 μg/mL blasticidin, and 100 μg/mL hygromycin. hERG channel expression induction was obtained by adding 10 μg/mL tetracycline for 24, 48, or 72 h before recordings.
On the day of the experiment, cells were detached with TrypLE and prepared to be loaded on the instrument. Cells were resuspended in 7 mL of Serum-Free Media containing 25 mM Hepes and soybean trypsin inhibitor and immediately placed in the cell storage tank of the machine. The composition of the extracellular buffer was (mM): NaCl 137, KCl 4, CaCl2 1.8, MgCl2 1.0, d-glucose 10, N-2-hydroxyethylpiperazine-N′-2-ethanesulfonic acid (HEPES) 10, pH 7.4 with 1 M NaOH. The composition of the intracellular solution was (mM): KCl 130, MgCl2 1.0, ethylene glycol-bis(β-aminoethyl ether)-N,N,N′,N′-tetraacetic acid (EGTA) 5, MgATP 5, HEPES 10, pH 7.2 with 1 M KOH. The voltage protocol included the following steps: step from −80 to −50 mV for 200 ms, +20 mV for 4.8 s, step to −50 mV for 5 s, then step to the holding potential of −80 mV. Compounds were dissolved in DMSO and diluted in extracellular buffer to achieve final test concentrations (0.3, 3, and 30 μM) in 0.3% DMSO. The voltage protocol was run and recorded continuously during the experiment. The vehicle, corresponding to 0.3% DMSO in extracellular buffer was then applied for 3 min, followed by the test substance in triplicate. The standard combined exposure time was 5 min. The average of tail current amplitude values recorded from four sequential voltage pulses was used to calculate for each cell the effect of the test substance by calculating the residual current (% control) compared with vehicle pretreatment. Data were reported as % inhibition for each concentration tested, and IC50 values were estimated using QPatch software. At least two cells were tested, and even more if results diverged.

Another assay has as its system ATF4. The assay is described as follows: HEK-ATF4 High Content Imaging assay (prevention of Tunicamycin induced ISR; ATF4 signal ratio between nucleus and cytoplasm). It counts as cell-based. The settings on record: Homo sapiens; Wild-type HEK293 cells, Tunicamycin induced ISR, 6 h; read-out: IIEK-ATF4 Activity. How it is done:
HEK-ATF4 High Content Imaging Assay
Example compounds were tested in the HEK-ATF4 High Content Imaging assay to assess their pharmacological potency to prevent Tunicamycin induced ISR. Wild-type HEK293 cells were plated in 384-well imaging assay plates at a density of 12,000 cells per well in growth medium (containing DMEM/F12, 10% FBS, 2 mM L-Glutamine, 100 U/mL Penicillin-100 μg/mL Streptomycin) and incubated at 37° C., 5% CO2. 24 h later, the medium was changed to 50 μL assay medium per well (DMEM/F12, 0.3% FBS, 2 mM L-Glutamine, 100 U/mL Penicillin-100 μg/mL Streptomycin). Example compounds were serially diluted in DMSO, spotted into intermediate plates and prediluted with assay medium containing 3.3 μM Tunicamycin to give an 11-fold excess of final assay concentration. In addition to the example compound testing area, the plates also contained multiples of control wells for assay normalization purposes, wells containing Tunicamycin but no example compounds (High control), as well as wells containing neither example compound nor Tunicamycin (Low control). The assay was started by transferring 5 μL from the intermediate plate into the assay plates, followed by incubation for 6 h at 37° C., 5% CO2. Subsequently, cells were fixed (4% PFA in PBS, 20 min at r.t.) and submitted to indirect ATF4 immunofluorescence staining (primary antibody rabbit anti ATF4, clone D4B8, Cell Signaling Technologies; secondary antibody Alexa Fluor 488 goat anti-rabbit IgG (H+L), Thermofisher Scientific). Nuclei were stained using Hoechst dye (Thermofisher Scientific), and plates were imaged on an Opera Phenix High Content imaging platform equipped with 405 nm and 488 nm excitation. Finally, images were analyzed using script based algorithms. The main readout HEK-ATF4 monitored the ATF4 signal ratio between nucleus and cytoplasm. Tunicamycin induced an increase in the overall ATF4 ratio signal, which was prevented by ISR modulating example compounds. In addition, HEK-CellCount readout was derived from counting the number of stained nuclei corresponding to healthy cells. This readout served as an internal toxicity control.

Bounds are passed on as bounds.

T1 sequence (Q12809 whole entry): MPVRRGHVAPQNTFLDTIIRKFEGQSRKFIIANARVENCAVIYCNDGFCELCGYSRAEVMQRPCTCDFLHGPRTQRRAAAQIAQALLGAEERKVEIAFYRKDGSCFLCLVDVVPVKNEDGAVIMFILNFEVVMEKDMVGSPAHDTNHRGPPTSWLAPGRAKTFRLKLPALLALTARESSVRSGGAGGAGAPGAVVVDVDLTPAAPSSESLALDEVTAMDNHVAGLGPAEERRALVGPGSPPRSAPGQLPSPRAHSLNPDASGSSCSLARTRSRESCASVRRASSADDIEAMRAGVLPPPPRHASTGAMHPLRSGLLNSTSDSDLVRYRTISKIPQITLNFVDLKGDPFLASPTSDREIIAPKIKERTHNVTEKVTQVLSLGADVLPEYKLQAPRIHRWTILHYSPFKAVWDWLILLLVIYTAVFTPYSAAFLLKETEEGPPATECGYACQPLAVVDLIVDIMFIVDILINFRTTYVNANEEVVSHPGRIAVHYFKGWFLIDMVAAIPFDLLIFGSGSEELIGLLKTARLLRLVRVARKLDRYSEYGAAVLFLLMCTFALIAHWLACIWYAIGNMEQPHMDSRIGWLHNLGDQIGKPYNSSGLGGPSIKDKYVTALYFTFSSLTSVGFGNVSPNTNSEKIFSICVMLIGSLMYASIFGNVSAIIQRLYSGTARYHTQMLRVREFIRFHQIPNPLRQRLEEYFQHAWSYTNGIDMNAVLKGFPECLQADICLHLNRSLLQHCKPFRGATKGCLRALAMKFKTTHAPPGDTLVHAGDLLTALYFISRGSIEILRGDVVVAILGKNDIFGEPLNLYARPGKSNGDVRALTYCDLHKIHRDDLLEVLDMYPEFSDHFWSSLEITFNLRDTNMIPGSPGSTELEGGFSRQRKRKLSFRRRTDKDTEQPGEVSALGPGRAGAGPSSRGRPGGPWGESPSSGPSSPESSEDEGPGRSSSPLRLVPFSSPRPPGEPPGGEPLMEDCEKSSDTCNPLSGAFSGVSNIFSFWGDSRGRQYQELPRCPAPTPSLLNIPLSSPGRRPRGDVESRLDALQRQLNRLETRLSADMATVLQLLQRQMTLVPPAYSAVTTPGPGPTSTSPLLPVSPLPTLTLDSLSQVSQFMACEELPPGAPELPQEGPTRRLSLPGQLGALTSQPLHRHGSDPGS

Consider `O=C(COc1ccc(Cl)c(F)c1)N[C@H]1CC[C@H](c2nnc(OCCO[C@H]3CC3(F)F)o2)NC1` (single isomer, unassigned) [Example 103], for which the IC50 in assay [1] is more than 5 µM; with ATF4, 0.001 to 0.5 µM.
On to `CCN1C[C@H](NC(=O)COc2ccc(Cl)c(F)c2)CC[C@H]1c1nnc(-c2ccc(Cl)cc2)o1` [Example 47, 2-(4-chloro-3-fluorophenoxy)-N-[(3R,6S)-6-[5-(4-chlorophenyl)-1,3,4-oxadiazol-2-yl]-1-ethylpiperidin-3-yl]acetamide], for which the IC50 was 0.001 to 1 µM in assay [1] and 0.001 to 0.5 µM with ATF4.
As for `O=C(COc1ccc(Cl)c(F)c1)N[C@H]1CC[C@H](c2nnc(OC3CC(F)(F)C3)o2)NC1` [Example 72, 2-(4-chloro-3-fluorophenoxy)-N-[(3S,6R)-6-[5-(3,3-difluorocyclobutoxy)-1,3,4-oxadiazol-2-yl]piperidin-3-yl]acetamide], the IC50 in assay [1] lay within 1 to 5 µM; in the assay with ATF4, 2 to 15 µM.
As to `O=C(COc1ccc(Cl)c(F)c1)N[C@H]1CC[C@H](c2nnc(-c3ccc(C(F)(F)F)cc3)o2)NC1` [Example 2, 2-(4-chloro-3-fluorophenoxy)-N-[(3S,6R)-6-{5-[4-(trifluoromethyl)phenyl]-1,3,4-oxadiazol-2-yl}piperidin-3-yl]acetamide], the figures for the IC50 (in assay [1]; in the assay with ATF4) were 0.001 to 1 µM and 0.001 to 0.5 µM, respectively.
Take `C[C@@H](Oc1ccc(Cl)cc1)C(=O)N[C@H]1CC[C@H](c2nnc(-c3ccc(C(F)(F)F)cc3)o2)NC1` (single isomer, unassigned) [Example 106]: the IC50 in assay [1] is 1 to 5 µM; in the assay with ATF4, 2 to 15 µM.
Consider `CC(C)CCOc1nnc([C@H]2CC[C@H](NC(=O)COc3ccc(Cl)c(F)c3)CN2)o1` [Example 70, 2-(4-chloro-3-fluorophenoxy)-N-[(3S,6R)-6-[5-(3-methylbutoxy)-1,3,4-oxadiazol-2-yl]piperidin-3-yl]acetamide], for which the IC50 lay within 1 to 5 µM in assay [1] and 0.001 to 0.5 µM with ATF4.
For `O=C(COc1ccc(Cl)c(F)c1)N[C@H]1CC[C@H](c2nnc(OCCO[C@@H]3CC3(F)F)o2)NC1` (single isomer, unassigned) [Example 102] the same measures were 1 to 5 µM and 0.5 to 2 µM.
As for `CN1C[C@H](NC(=O)COc2ccc(Cl)c(F)c2)CC[C@H]1c1nnc(-c2ccc(Cl)cc2)o1` [Example 44, 2-(4-chloro-3-fluorophenoxy)-N-[(3R,6S)-6-[5-(4-chlorophenyl)-1,3,4-oxadiazol-2-yl]-1-methylpiperidin-3-yl]acetamide], the IC50 was in the range of 0.001 to 1 µM in assay [1] and 0.001 to 0.5 µM with ATF4.
`O=C(COc1ccc(Cl)c(F)c1)N[C@H]1CC[C@H](c2nnc(OCCOC3CC3(F)F)o2)NC1` (stereo partly drawn) [Example 87, 2-(4-chloro-3-fluorophenoxy)-N-[(3S,6R)-6-{5-[2-(2,2-difluorocyclopropoxy)ethoxy]-1,3,4-oxadiazol-2-yl}piperidin-3-yl]acetamide]: the IC50 in assay [1] was in the range of 1 to 5 µM; in the assay with ATF4 it was 0.001 to 0.5 µM.
On to `CC1(OC(F)(F)F)CN(c2nnc([C@H]3CC[C@H](NC(=O)COc4ccc(Cl)c(F)c4)CN3)o2)C1` [Example 93, 2-(4-chloro-3-fluorophenoxy)-N-[(3S,6R)-6-{5-[3-methyl-3-(trifluoromethoxy)azetidin-1-yl]-1,3,4-oxadiazol-2-yl}piperidin-3-yl]acetamide], for which the IC50 is more than 5 µM in assay [1] and 0.5 to 2 µM in the assay with ATF4.
For the compound `CC(CC(F)(F)F)Oc1nnc([C@H]2CC[C@H](NC(=O)COc3ccc(Cl)c(F)c3)CN2)o1` (stereo partly drawn) [Example 64, 2-(4-chloro-3-fluorophenoxy)-N-[(3S,6R)-6-{5-[(4,4,4-trifluorobutan-2-yl)oxy]-1,3,4-oxadiazol-2-yl}piperidin-3-yl]acetamide], the IC50 was more than 5 µM in assay [1] and 2 to 15 µM with ATF4.
`CCCCOc1nnc([C@H]2CC[C@H](NC(=O)COc3ccc(Cl)c(F)c3)CN2)o1` [Example 67, N-[(3S,6R)-6-(5-butoxy-1,3,4-oxadiazol-2-yl)piperidin-3-yl]-2-(4-chloro-3-fluorophenoxy)acetamide]: the IC50 in assay [1] lay in the range of 1 to 5 µM; in the assay on ATF4, 0.001 to 0.5 µM.
For `O=C(COc1ccc(C(F)(F)F)c(Cl)c1)N[C@H]1CC[C@H](c2nnc([C@H]3C[C@@H](OC(F)(F)F)C3)o2)NC1` [Example 10, 2-[3-chloro-4-(trifluoromethyl)phenoxy]-N-[(3S,6R)-6-{5-[(1s,3s)-3-(trifluoromethoxy)cyclobutyl]-1,3,4-oxadiazol-2-yl}piperidin-3-yl]acetamide], in that order: 1 to 5 µM and 0.001 to 0.5 µM.
As for `O=C(COc1ccc(Cl)c(F)c1)N[C@H]1CC[C@H](c2nnc(N3CC(OC(F)(F)F)C3)o2)NC1` [Example 91, 2-(4-chloro-3-fluorophenoxy)-N-[(3S,6R)-6-{5-[3-(trifluoromethoxy)azetidin-1-yl]-1,3,4-oxadiazol-2-yl}piperidin-3-yl]acetamide], the IC50 in assay [1] lay within 1 to 5 µM; in the assay on ATF4, 0.001 to 0.5 µM.
Turning to `O=C(COc1ccc(Cl)c(F)c1)N[C@H]1CC[C@H](c2nnc(-c3ccc(Cl)cn3)o2)NC1` [Example 53, 2-(4-chloro-3-fluorophenoxy)-N-[(3S,6R)-6-[5-(5-chloropyridin-2-yl)-1,3,4-oxadiazol-2-yl]piperidin-3-yl]acetamide], the figures for the IC50 (in assay [1]; in the assay on ATF4) were 1 to 5 µM and 0.001 to 0.5 µM, respectively.
Consider `O=C(COc1ccc(Cl)c(F)c1)N[C@@H]1CC[C@@H](c2nnc(N3CC(OC(F)(F)F)C3)o2)NC1` [Example 43], for which the figures for the IC50 (in assay [1]; in the assay on ATF4) were more than 5 µM and 0.001 to 0.5 µM, respectively.
On to `O=C(COc1ccc(Cl)c(F)c1)N[C@H]1CC[C@H](c2nnc(C3CC(OC4CC4)C3)o2)NC1` (stereo partly drawn) [Example 59, 2-(4-chloro-3-fluorophenoxy)-N-[(3S,6R)-6-[5-(3-cyclopropoxycyclobutyl)-1,3,4-oxadiazol-2-yl]piperidin-3-yl]acetamide], for which the IC50 is more than 5 µM in assay [1] and 0.5 to 2 µM in the assay with ATF4.
As for `O=C(COc1ccc(Cl)c(F)c1)N[C@H]1CC[C@H](c2nnc(OCC3CCC3(F)F)o2)NC1` (stereo partly drawn) [Example 71, 2-(4-chloro-3-fluorophenoxy)-N-[(3S,6R)-6-{5-[(2,2-difluorocyclobutyl)methoxy]-1,3,4-oxadiazol-2-yl}piperidin-3-yl]acetamide], the IC50 fell in the range of 1 to 5 µM in assay [1] and 0.5 to 2 µM in the assay with ATF4.
For `O=C(COc1cnc(Cl)c(F)c1)N[C@H]1CC[C@H](c2nnc(-c3ccc(Cl)c(Cl)c3)o2)NC1` [Example 100, 2-[(6-chloro-5-fluoropyridin-3-yl)oxy]-N-[(3S,6R)-6-[5-(3,4-dichlorophenyl)-1,3,4-oxadiazol-2-yl]piperidin-3-yl]acetamide] the same measures were 1 to 5 µM and 0.001 to 0.5 µM.
For `CN1C[C@@H](NC(=O)COc2ccc(Cl)c(F)c2)CC[C@@H]1c1nnc(OCCOC(F)(F)F)o1` [Example 101, 2-(4-chloro-3-fluorophenoxy)-N-[(3S,6R)-1-methyl-6-{5-[2-(trifluoromethoxy)ethoxy]-1,3,4-oxadiazol-2-yl}piperidin-3-yl]acetamide], in that order: more than 5 µM and 0.001 to 0.5 µM.
